Laboratory results taken from patent publication US12723063B2, “GIPR-agonist compounds” (Eli Lilly and Company, priority 2019, dated 2026).
*1 amine or outer side, *2 acyl side, *3 side chain or, on linkers, in order; H or OH if unused. Where a SMILES comes first, the peptide text is derived from it. Side-chain parts run from the residue outwards. [ ]: non-standard residue; d: D form. The star is where a group is joined. C20 diacid = O=C(O)CCCCCCCCCCCCCCCCCCC(=O)*; γGlu = O=C(O)[C@H](CCC(=O)[*:2])N[*:1]; αMeF = C[C@](N)(Cc1ccccc1)C(=O)O; 4Pal = N[C@@H](Cc1ccncc1)C(=O)O; αMeL = CC(C)C[C@](C)(N)C(=O)O; AEEA = NCCOCCOCC(=O)O; Aib = CC(C)(N)C(=O)O

Legend:
human GLP-1R = target: T1, human GLP-1R (Homo sapiens, UniProt P43220); experiment: [125I]-GLP-1 binding, SPA with WGA beads, 0.1% bacitracin; conditions: geometric mean, read-out: hGLP1R Ki
T1 construct: expressed in transfected cells; crude membranes
Method in brief: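 Binding buffer was 25 mM HEPES pH 7.4 with 2.5 mM CaCl2, 1 mM MgCl2, 0.1% (w/v) bacitracin, 0.003% Tween-20 and EDTA-free protease inhibitors. Four-parameter regression gave IC50, converted to Ki (geometric mean, SEM, n independent days).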

[1] = target: T2, human GLP-1 receptor (GLP-1R) (Homo sapiens, UniProt P43220); experiment: cAMP functional assay (HTRF) in HEK293 cells in presence of 0.1% casein; type: cell-based; conditions: HEK293 cells expressing human GLP-1R, geometric mean, read-out: hGLP1R cAMP Rel EC50 nM (SEM, n)
T2 construct: expressed in transfected cells; host or cells: HEK293

[2] = target: T3, human glucagon receptor (GcgR) (Homo sapiens, UniProt P47871); experiment: as above; type: cell-based; conditions: HEK293 cells expressing human GcgR, geometric mean, read-out: hGcgR cAMP Rel EC50 nM (SEM, n)
T3 construct: expressed in transfected cells; host or cells: HEK293
T3 sequence (P47871 26-477): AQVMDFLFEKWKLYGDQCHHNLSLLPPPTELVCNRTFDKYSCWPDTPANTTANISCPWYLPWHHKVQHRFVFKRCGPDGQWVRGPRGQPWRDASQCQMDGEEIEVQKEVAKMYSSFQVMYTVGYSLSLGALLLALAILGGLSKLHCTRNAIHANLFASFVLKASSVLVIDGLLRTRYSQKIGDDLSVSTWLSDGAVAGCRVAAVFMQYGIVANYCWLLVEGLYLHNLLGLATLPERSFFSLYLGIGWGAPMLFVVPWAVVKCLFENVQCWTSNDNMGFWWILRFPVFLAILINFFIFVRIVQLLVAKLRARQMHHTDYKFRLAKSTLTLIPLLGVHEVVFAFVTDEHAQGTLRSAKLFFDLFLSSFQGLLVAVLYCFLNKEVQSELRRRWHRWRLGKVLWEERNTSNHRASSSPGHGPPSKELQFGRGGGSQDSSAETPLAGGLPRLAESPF

T2 sequence (P43220 24-463): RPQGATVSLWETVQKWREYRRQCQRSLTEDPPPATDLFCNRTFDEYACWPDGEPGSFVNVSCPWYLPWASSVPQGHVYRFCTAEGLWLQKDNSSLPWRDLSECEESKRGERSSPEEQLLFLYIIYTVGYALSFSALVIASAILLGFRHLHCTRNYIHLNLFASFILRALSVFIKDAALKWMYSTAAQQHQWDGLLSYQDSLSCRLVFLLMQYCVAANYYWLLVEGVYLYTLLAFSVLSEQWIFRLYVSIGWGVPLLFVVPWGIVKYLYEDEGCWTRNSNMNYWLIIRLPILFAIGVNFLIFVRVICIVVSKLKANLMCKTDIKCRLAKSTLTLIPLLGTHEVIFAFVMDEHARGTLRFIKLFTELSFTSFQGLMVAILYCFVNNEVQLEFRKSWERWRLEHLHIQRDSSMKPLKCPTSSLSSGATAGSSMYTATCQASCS
T1 sequence (P43220 24-463): as above

## CC[C@H](C)[C@H](NC(=O)[C@H](CO)NC(=O)[C@H](Cc1ccc(O)cc1)NC(=O)[C@H](CC(=O)O)NC(=O)[C@H](CO)NC(=O)[C@@H](NC(=O)[C@](C)(Cc1ccccc1)NC(=O)[C@@H](NC(=O)CNC(=O)[C@H](CCC(=O)O)NC(=O)C(C)(C)NC(=O)[C@@H](N)Cc1ccc(O)cc1)[C@@H](C)O)[C@@H](C)CC)C(=O)N[C@@H](C)C(=O)N[C@@H](CC(C)C)C(=O)N[C@@H](CC(=O)O)C(=O)N[C@@H](CCCCN)C(=O)N[C@@H](CCCCNC(=O)COCCOCCNC(=O)COCCOCCNC(=O)CC[C@H](NC(=O)CCCCCCCCCCCCCCCCCCC(=O)O)C(=O)O)C(=O)N[C@@H](Cc1c[nH]cn1)C(=O)N[C@@H](CCC(N)=O)C(=O)NC(C)(C)C(=O)N[C@@H](CC(=O)O)C(=O)N[C@@H](Cc1ccccc1)C(=O)N[C@H](C(=O)N[C@@H](CCC(=O)O)C(=O)N[C@@H](Cc1ccncc1)C(=O)N[C@@H](CC(C)C)C(=O)N[C@@H](CC(C)C)C(=O)N[C@@H](CCC(=O)O)C(=O)NCC(=O)NCC(=O)N1CCC[C@H]1C(=O)N[C@@H](CO)C(=O)N[C@@H](CO)C(=O)NCC(=O)N[C@@H](C)C(=O)N1CCC[C@H]1C(=O)N1CCC[C@H]1C(=O)N1CCC[C@H]1C(=O)N[C@@H](CO)C(N)=O)C(C)C [Example 44] (H-Y[Aib]EGT[αMeF]ISDYSIALDKK([AEEA-AEEA-γGlu-C20 diacid])HQ[Aib]DFVE[4Pal]LLEGGPSSGAPPPS-NH2)
Human GLP-1R
  Ki: 209 nM
[1]
  EC50: 1180 nM
[2]
  EC50: > 5000 nM

## CC[C@H](C)[C@H](NC(=O)[C@H](Cc1ccccc1)NC(=O)[C@@H](NC(=O)CNC(=O)[C@H](CCC(=O)O)NC(=O)C(C)(C)NC(=O)[C@@H](N)Cc1ccc(O)cc1)[C@@H](C)O)C(=O)N[C@@H](CO)C(=O)N[C@@H](CC(=O)O)C(=O)N[C@@H](Cc1ccc(O)cc1)C(=O)N[C@@H](CO)C(=O)N[C@H](C(=O)N[C@@](C)(CC(C)C)C(=O)N[C@@H](CC(C)C)C(=O)N[C@@H](CC(=O)O)C(=O)N[C@@H](CCCCN)C(=O)N[C@@H](CCCCNC(=O)COCCOCCNC(=O)COCCOCCNC(=O)CC[C@H](NC(=O)CCCCCCCCCCCCCCCCCCC(=O)O)C(=O)O)C(=O)N[C@@H](Cc1c[nH]cn1)C(=O)N[C@@H](CCC(N)=O)C(=O)NC(C)(C)C(=O)N[C@@H](CC(=O)O)C(=O)N[C@@H](Cc1ccccc1)C(=O)N[C@H](C(=O)N[C@@H](CCC(=O)O)C(=O)N[C@@H](Cc1ccncc1)C(=O)N[C@@H](CC(C)C)C(=O)N[C@@H](CC(C)C)C(=O)N[C@@H](CCC(=O)O)C(=O)N[C@H](C(=O)NCC(=O)N1CCC[C@H]1C(=O)N[C@@H](CO)C(=O)N[C@@H](CO)C(=O)NCC(=O)N[C@@H](C)C(=O)N1CCC[C@H]1C(=O)N1CCC[C@H]1C(=O)N1CCC[C@H]1C(=O)N[C@@H](CO)C(N)=O)[C@@H](C)O)C(C)C)[C@@H](C)CC [Example 45] (H-Y[Aib]EGTFISDYSI[αMeL]LDKK([AEEA-AEEA-γGlu-C20 diacid])HQ[Aib]DFVE[4Pal]LLETGPSSGAPPPS-NH2)
Human GLP-1R
  Ki: > 909 nM
[1]
  EC50: > 5000 nM
[2]
  EC50: 1690 nM

## CC[C@H](C)[C@H](NC(=O)[C@H](Cc1ccccc1)NC(=O)[C@@H](NC(=O)CNC(=O)[C@H](CCC(=O)O)NC(=O)C(C)(C)NC(=O)[C@@H](N)Cc1ccc(O)cc1)[C@@H](C)O)C(=O)N[C@@H](CO)C(=O)N[C@@H](CC(=O)O)C(=O)N[C@@H](Cc1ccc(O)cc1)C(=O)N[C@@H](CO)C(=O)N[C@H](C(=O)N[C@@](C)(CC(C)C)C(=O)N[C@@H](CC(C)C)C(=O)N[C@@H](CC(=O)O)C(=O)N[C@@H](CCCCN)C(=O)N[C@@H](CCCCNC(=O)COCCOCCNC(=O)COCCOCCNC(=O)CC[C@H](NC(=O)CCCCCCCCCCCCCCCCCCC(=O)O)C(=O)O)C(=O)N[C@@H](Cc1c[nH]cn1)C(=O)N[C@@H](CCC(N)=O)C(=O)NC(C)(C)C(=O)N[C@@H](CC(=O)O)C(=O)N[C@@H](Cc1ccccc1)C(=O)N[C@H](C(=O)N[C@@H](CCC(=O)O)C(=O)N[C@@H](Cc1ccncc1)C(=O)N[C@@H](CC(C)C)C(=O)N[C@@H](CC(C)C)C(=O)N[C@@H](CCC(=O)O)C(=O)N[C@@H](CCC(N)=O)C(=O)NCC(=O)N1CCC[C@H]1C(=O)N[C@@H](CO)C(=O)N[C@@H](CO)C(=O)NCC(=O)N[C@@H](C)C(=O)N1CCC[C@H]1C(=O)N1CCC[C@H]1C(=O)N1CCC[C@H]1C(=O)N[C@@H](CO)C(N)=O)C(C)C)[C@@H](C)CC [Example 46] (H-Y[Aib]EGTFISDYSI[αMeL]LDKK([AEEA-AEEA-γGlu-C20 diacid])HQ[Aib]DFVE[4Pal]LLEQGPSSGAPPPS-NH2)
Human GLP-1R
  Ki: 744 nM
[1]
  EC50: > 5000 nM
[2]
  EC50: 863 nM

## CC[C@H](C)[C@H](NC(=O)[C@H](Cc1ccccc1)NC(=O)[C@@H](NC(=O)CNC(=O)[C@H](CCC(=O)O)NC(=O)C(C)(C)NC(=O)[C@@H](N)Cc1ccc(O)cc1)[C@@H](C)O)C(=O)N[C@@H](CO)C(=O)N[C@@H](CC(=O)O)C(=O)N[C@@H](Cc1ccc(O)cc1)C(=O)N[C@@H](CO)C(=O)N[C@H](C(=O)N[C@@](C)(CC(C)C)C(=O)N[C@@H](CC(C)C)C(=O)N[C@@H](CC(=O)O)C(=O)N[C@@H](CCCCN)C(=O)N[C@@H](CCCCNC(=O)COCCOCCNC(=O)COCCOCCNC(=O)CC[C@H](NC(=O)CCCCCCCCCCCCCCCCCCC(=O)O)C(=O)O)C(=O)N[C@@H](Cc1c[nH]cn1)C(=O)N[C@@H](CCC(N)=O)C(=O)NC(C)(C)C(=O)N[C@@H](CC(=O)O)C(=O)N[C@@H](Cc1ccccc1)C(=O)N[C@H](C(=O)N[C@@H](CCC(=O)O)C(=O)N[C@@H](Cc1ccncc1)C(=O)N[C@@H](CC(C)C)C(=O)N[C@@H](CC(C)C)C(=O)N[C@@H](CCC(=O)O)C(=O)NCC(=O)NCC(=O)N1CCC[C@H]1C(=O)N[C@@H](CO)C(=O)N[C@@H](CO)C(=O)NCC(=O)N[C@@H](C)C(=O)N1CCC[C@H]1C(=O)N1CCC[C@H]1C(=O)N1CCC[C@H]1C(=O)N[C@@H](CO)C(N)=O)C(C)C)[C@@H](C)CC [Example 47] (H-Y[Aib]EGTFISDYSI[αMeL]LDKK([AEEA-AEEA-γGlu-C20 diacid])HQ[Aib]DFVE[4Pal]LLEGGPSSGAPPPS-NH2)
Human GLP-1R
  Ki: 320 nM
[1]
  EC50: > 5000 nM
[2]
  EC50: 757 nM

## CC[C@H](C)[C@H](NC(=O)[C@H](Cc1ccccc1)NC(=O)[C@@H](NC(=O)CNC(=O)[C@H](CCC(=O)O)NC(=O)C(C)(C)NC(=O)[C@@H](N)Cc1ccc(O)cc1)[C@@H](C)O)C(=O)N[C@@H](CO)C(=O)N[C@@H](CC(=O)O)C(=O)N[C@@H](Cc1ccc(O)cc1)C(=O)N[C@@H](CO)C(=O)N[C@H](C(=O)N[C@@](C)(CC(C)C)C(=O)N[C@@H](CC(C)C)C(=O)N[C@@H](CC(=O)O)C(=O)N[C@@H](CCCCN)C(=O)N[C@@H](CCCCNC(=O)COCCOCCNC(=O)COCCOCCNC(=O)CC[C@H](NC(=O)CCCCCCCCCCCCCCCCCCC(=O)O)C(=O)O)C(=O)N[C@@H](Cc1c[nH]cn1)C(=O)N[C@@H](CCC(N)=O)C(=O)NC(C)(C)C(=O)N[C@@H](CC(=O)O)C(=O)N[C@@H](Cc1ccccc1)C(=O)N[C@H](C(=O)N[C@@H](CCC(=O)O)C(=O)N[C@@H](Cc1ccncc1)C(=O)N[C@@H](CC(C)C)C(=O)N[C@@H](CC(C)C)C(=O)N[C@@H](C)C(=O)NCC(=O)NCC(=O)N1CCC[C@H]1C(=O)N[C@@H](CO)C(=O)N[C@@H](CO)C(=O)NCC(=O)N[C@@H](C)C(=O)N1CCC[C@H]1C(=O)N1CCC[C@H]1C(=O)N1CCC[C@H]1C(=O)N[C@@H](CO)C(N)=O)C(C)C)[C@@H](C)CC [Example 48]
Human GLP-1R
  Ki: 211 nM
[1]
  EC50: > 5000 nM
[2]
  EC50: 1360 nM

## CC[C@H](C)[C@H](NC(=O)[C@H](Cc1ccccc1)NC(=O)[C@@H](NC(=O)CNC(=O)[C@H](CCC(=O)O)NC(=O)C(C)(C)NC(=O)[C@@H](N)Cc1ccc(O)cc1)[C@@H](C)O)C(=O)N[C@@H](CO)C(=O)N[C@@H](CC(=O)O)C(=O)N[C@@H](Cc1ccc(O)cc1)C(=O)N[C@@H](CO)C(=O)N[C@H](C(=O)N[C@@](C)(CC(C)C)C(=O)N[C@@H](CC(C)C)C(=O)N[C@@H](CC(=O)O)C(=O)N[C@@H](CCCCN)C(=O)N[C@@H](CCCCNC(=O)COCCOCCNC(=O)COCCOCCNC(=O)CC[C@H](NC(=O)CCCCCCCCCCCCCCCCC(=O)O)C(=O)O)C(=O)N[C@@H](Cc1c[nH]cn1)C(=O)N[C@@H](CCC(N)=O)C(=O)NC(C)(C)C(=O)N[C@@H](CC(=O)O)C(=O)N[C@@H](Cc1ccccc1)C(=O)N[C@H](C(=O)N[C@@H](CCC(=O)O)C(=O)N[C@@H](Cc1ccncc1)C(=O)N[C@@H](CC(C)C)C(=O)N[C@@H](CC(C)C)C(=O)N[C@@H](C)C(=O)NCC(=O)NCC(=O)N1CCC[C@H]1C(=O)N[C@@H](CO)C(=O)N[C@@H](CO)C(=O)NCC(=O)N[C@@H](C)C(=O)N1CCC[C@H]1C(=O)N1CCC[C@H]1C(=O)N1CCC[C@H]1C(=O)N[C@@H](CO)C(N)=O)C(C)C)[C@@H](C)CC [Example 49]
Human GLP-1R
  Ki: 596 nM
[1]
  EC50: > 5000 nM
[2]
  EC50: 2860 nM
